In paper PMC12557380, “Optimization of 2,8-Diaryl-1,5-naphthyridines as Plasmodium falciparum Phosphatidylinositol 4‑Kinase Inhibitors with Improved ADME Profiles and In Vivo Efficacy” (Journal of Medicinal Chemistry, 2025):
Values after ≈ are worked out from the molar mass of the structure shown. Like-named read-outs stand apart in the source and are kept apart here. Blank lines part the entries; values can stand above or below the molecule they belong to.

Assays:
PfDd2 = conditions: read-out: PfDd2 IC50; reported inhibitors, Figure 1; cited from earlier work
P. vivax PI4Kβ (PvPI4K) = conditions: cited from earlier work
HsPI4K = conditions: reported inhibitors, Figure 1; cited from earlier work
[1] = test system: panel of the drug-resistant strains of P. falciparum; conditions: Figure 1, read-out: PfIC50; cited from earlier work
[2] = test system: L6 rat myoblast cell line; experiment: Cytotoxicity, L6; assay type: cell-based; conditions: read-out: L6 IC50
Pf3D7 = conditions: read-out: Pf3D7 IC50; cited from earlier work
[3] = test system: P. falciparum K1 (PfK1) strain; experiment: In vitro antiplasmodial asexual blood stage activity, pLDH assay, K1; assay type: cell-based; conditions: Plasmodium falciparum
[4] = test system: Chinese hamster ovary cells; experiment: Cytotoxicity, MTT assay, CHO; assay type: cell-based; conditions: Cricetulus griseus, read-out: CHO IC50
[5] = test system: P. falciparum NF54 (PfNF54) parasites; experiment: In vitro antiplasmodial asexual blood stage activity, pLDH assay, NF54; assay type: cell-based, Plasmodium falciparum; conditions: Plasmodium falciparum
PfNF54 = conditions: cited from earlier work
HepG2 cells = experiment: Cytotoxicity, MTT assay, HepG2; assay type: cell-based
in vitro [6] = conditions: human, Caco-2
physchem [7] = conditions: 25 °C, pH 6.5, aqueous buffer, thermodynamic from solid
[8] = test system: P. falciparum PI4K cKD line; experiment: microbe, parasite or virus in culture; conditions: Plasmodium falciparum
in vitro [9] = conditions: human, pH 7.4
in vitro [10] = conditions: mouse, pH 7.4
physchem [11] = conditions: n-octanol/phosphate buffer (1:1), pH 7.4
[12] = for in vivo mouse CLb: total body clearance from whole blood, iv 3 mg/kg; for in vivo mouse CLu: unbound blood clearance from CLb and plasma protein binding
in vivo = conditions: male, Balb/C, mouse, po, 10 mg/kg
HsMAP4K4 = HsMAP4K4 (Homo sapiens, UniProt O95819); experiment: Human kinase screening, ADP-Glo, MAP4K4; assay type: biochemical; conditions: IC50/PvPI4K IC50
HsPI4Kβ = HsPI4Kβ (Homo sapiens, UniProt Q9UBF8); experiment: Human lipid kinase screening, ADP-Glo, PI4Kβ; assay type: biochemical; conditions: IC50/PvPI4K IC50
HsMINK1 = HsMINK1 (Homo sapiens, UniProt Q8N4C8); experiment: Human kinase screening, ADP-Glo, MINK1; assay type: biochemical; conditions: IC50/PvPI4K IC50
HsPI3Kα = HsPI3Kα (Homo sapiens, UniProt P42336); experiment: Human lipid kinase screening, ADP-Glo, PI3Kα; assay type: biochemical; conditions: IC50/PvPI4K IC50
[13] = test system: PI4K S743F + H1484Y and PI4K S1320L + L1418F mutant lines; conditions: 72 h, SYBR green I
[14] = K1, 72 h, read-out: Pf ABS IC50 K1
[15] = NF54, 72 h, read-out: Pf ABS IC50 NF54
[16] = Homo sapiens, HepG2, read-out: HepG2 IC50
[17] = read-out: IC50 Mean + SD, +aTc, mean of N=3, +aTc
[18] = read-out: IC50 Mean + SD, no aTc, mean of N=3, no aTc
[19] = read-out: IC50 for PfPI4K, +aTc, N=1, +aTc
[20] = read-out: IC50 for PfPI4K, +aTc, N=2, +aTc
[21] = read-out: IC50 for PfPI4K, +aTc, N=3, +aTc
[22] = read-out: IC50 for PfPI4K, no aTc, N=1, no aTc (knockdown)
[23] = read-out: IC50 for PfPI4K, no aTc, N=2, no aTc (knockdown)
[24] = read-out: IC50 for PfPI4K, no aTc, N=3, no aTc (knockdown)
[25] = NF54, 72 h, pLDH assay, 72 h, read-out: Pf ABS IC50 NF54
[26] = NF54, mean, supplement, read-out: PfNF54 IC50

Sequence of HsPI4Kβ (Q9UBF8 whole entry): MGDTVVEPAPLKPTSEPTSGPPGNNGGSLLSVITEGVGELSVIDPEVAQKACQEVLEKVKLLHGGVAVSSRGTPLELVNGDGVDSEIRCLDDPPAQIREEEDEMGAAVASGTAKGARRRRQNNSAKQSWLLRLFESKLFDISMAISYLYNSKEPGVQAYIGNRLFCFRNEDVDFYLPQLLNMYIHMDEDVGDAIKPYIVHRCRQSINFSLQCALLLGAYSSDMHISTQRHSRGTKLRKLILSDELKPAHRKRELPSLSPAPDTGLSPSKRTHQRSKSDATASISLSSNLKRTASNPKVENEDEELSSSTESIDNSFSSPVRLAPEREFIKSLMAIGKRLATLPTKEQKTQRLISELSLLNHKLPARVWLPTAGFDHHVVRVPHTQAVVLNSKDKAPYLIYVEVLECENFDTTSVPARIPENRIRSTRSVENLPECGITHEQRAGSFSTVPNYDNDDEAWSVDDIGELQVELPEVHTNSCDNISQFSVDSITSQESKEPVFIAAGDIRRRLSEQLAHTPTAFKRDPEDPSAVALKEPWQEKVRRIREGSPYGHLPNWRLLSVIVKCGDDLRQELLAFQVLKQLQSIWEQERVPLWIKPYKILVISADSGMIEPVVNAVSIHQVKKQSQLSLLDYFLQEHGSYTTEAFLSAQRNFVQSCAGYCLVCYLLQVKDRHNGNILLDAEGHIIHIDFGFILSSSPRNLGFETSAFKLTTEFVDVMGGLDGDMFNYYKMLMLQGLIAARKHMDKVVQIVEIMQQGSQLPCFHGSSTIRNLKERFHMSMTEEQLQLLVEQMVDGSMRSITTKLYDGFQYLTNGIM
Sequence of HsPI3Kα (P42336 whole entry): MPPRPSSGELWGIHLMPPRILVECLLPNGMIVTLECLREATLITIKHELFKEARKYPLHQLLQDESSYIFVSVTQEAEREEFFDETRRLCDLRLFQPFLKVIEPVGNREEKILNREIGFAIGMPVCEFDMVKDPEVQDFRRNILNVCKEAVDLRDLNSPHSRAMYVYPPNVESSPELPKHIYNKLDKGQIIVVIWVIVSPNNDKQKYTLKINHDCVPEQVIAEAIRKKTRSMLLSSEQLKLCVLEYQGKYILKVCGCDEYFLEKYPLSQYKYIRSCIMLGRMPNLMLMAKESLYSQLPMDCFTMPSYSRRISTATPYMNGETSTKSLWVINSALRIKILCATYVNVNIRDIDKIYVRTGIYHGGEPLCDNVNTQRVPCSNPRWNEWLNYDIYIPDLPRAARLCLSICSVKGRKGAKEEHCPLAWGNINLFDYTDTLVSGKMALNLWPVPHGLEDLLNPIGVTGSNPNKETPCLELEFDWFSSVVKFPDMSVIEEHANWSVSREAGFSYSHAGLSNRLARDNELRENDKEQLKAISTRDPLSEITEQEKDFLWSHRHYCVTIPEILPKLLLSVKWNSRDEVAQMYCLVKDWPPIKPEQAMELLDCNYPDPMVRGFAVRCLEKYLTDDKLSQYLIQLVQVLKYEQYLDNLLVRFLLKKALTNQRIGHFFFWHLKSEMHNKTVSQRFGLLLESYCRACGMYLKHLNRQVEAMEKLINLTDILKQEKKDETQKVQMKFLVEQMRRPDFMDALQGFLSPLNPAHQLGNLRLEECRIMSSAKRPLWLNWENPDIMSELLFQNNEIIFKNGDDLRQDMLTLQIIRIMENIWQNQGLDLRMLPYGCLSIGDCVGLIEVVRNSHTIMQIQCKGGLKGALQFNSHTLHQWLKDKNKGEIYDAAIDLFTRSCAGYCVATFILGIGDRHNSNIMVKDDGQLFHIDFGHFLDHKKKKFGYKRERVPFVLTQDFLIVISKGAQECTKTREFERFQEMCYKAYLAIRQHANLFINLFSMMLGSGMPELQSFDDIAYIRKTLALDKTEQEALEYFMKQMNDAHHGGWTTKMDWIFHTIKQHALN
Sequence of HsPI3Kα (P27986 whole entry partner): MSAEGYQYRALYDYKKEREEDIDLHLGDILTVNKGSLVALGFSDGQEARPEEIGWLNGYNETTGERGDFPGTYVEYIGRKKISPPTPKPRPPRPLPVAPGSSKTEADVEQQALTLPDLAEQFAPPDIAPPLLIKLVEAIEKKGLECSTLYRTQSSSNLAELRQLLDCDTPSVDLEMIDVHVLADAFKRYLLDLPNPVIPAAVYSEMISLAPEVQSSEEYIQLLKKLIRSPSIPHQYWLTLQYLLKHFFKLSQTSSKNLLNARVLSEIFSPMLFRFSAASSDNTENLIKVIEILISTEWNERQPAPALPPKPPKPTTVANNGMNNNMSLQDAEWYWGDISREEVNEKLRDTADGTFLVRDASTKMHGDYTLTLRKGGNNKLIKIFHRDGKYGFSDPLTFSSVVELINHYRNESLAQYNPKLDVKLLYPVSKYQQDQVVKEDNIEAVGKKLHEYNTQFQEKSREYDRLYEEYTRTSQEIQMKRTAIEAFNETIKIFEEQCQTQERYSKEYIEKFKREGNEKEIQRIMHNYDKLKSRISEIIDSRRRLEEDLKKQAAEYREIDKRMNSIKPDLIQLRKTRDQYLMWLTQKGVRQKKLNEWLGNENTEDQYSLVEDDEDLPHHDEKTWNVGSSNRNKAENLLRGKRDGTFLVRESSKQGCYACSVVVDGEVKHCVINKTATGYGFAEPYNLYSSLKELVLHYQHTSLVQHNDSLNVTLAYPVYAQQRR
Sequence of HsMINK1 (Q8N4C8 whole entry): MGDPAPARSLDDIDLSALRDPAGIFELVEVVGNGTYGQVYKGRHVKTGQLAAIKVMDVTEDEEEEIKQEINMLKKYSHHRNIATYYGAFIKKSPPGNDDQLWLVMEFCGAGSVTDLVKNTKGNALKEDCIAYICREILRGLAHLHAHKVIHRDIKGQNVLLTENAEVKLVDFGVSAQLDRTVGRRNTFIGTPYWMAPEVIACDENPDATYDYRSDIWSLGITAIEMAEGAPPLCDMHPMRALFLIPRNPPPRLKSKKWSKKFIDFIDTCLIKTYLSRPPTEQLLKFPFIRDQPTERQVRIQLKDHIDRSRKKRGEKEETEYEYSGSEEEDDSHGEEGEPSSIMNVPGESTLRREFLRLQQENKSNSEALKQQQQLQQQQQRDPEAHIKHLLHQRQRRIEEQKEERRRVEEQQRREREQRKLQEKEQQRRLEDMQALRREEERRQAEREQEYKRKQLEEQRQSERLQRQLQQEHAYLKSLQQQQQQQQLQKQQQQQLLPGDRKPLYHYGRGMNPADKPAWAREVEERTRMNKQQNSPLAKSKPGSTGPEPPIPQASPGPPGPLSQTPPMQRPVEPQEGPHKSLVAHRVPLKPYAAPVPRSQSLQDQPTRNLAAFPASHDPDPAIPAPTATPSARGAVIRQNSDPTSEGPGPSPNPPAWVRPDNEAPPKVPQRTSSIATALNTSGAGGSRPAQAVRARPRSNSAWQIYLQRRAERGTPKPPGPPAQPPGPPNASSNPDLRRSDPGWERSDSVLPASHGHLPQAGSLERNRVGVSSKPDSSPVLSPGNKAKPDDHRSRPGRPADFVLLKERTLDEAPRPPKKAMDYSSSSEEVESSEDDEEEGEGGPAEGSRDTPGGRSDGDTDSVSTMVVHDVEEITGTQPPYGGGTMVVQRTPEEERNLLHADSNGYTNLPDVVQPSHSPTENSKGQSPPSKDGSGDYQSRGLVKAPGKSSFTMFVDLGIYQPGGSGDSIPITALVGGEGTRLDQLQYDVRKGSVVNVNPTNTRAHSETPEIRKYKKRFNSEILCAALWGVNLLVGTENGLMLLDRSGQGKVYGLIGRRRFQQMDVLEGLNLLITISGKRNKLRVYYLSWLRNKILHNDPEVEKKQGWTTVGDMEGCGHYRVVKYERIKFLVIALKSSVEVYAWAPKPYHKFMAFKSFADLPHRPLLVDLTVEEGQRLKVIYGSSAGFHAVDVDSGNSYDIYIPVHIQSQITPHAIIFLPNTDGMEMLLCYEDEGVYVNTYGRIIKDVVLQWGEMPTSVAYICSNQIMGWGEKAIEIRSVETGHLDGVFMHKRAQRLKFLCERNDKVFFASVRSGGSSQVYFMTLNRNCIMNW

SMILES: COc1ccc2c3c([nH]c2c1)[C@H](CO)N(C(C)=O)CC31CCN(C(=O)Nc2ccccc2F)CC1 [BRD73842]
IC50 (PfDd2): 69 nM

SMILES: CNC(=O)c1cncc(-c2cnc(Cl)c(NS(=O)(=O)c3ccccc3)c2)c1 [CHMFL-PI4K-127, 6′-Chloro-N-Methyl-5′-(Phenylsulfonamido)-[3,3′-Bipyridine]-5-Carboxamide]
IC50 (P. vivax PI4Kβ (PvPI4K); reported inhibitors, Figure 1): 0.9 nM
IC50 (HsPI4K): 430 nM
IC50 [1]: 24 to 47 nM

IC50 [3, 14]: 86 nM
IC50 [5, 15]: 63 nM
SMILES: NS(=O)(=O)c1cccc(-c2ccc3nccc(-c4ccnc(C(F)(F)F)c4)c3n2)c1 [Compound 1]
IC50 (P. vivax PI4Kβ (PvPI4K)): 6 nM
IC50 [2]: 35000 nM
IC50 (Pf3D7): 140 nM
IC50 [4]: 6000 nM
IC50 (PfNF54): 63 nM
IC50 (HepG2 cells; [16]): 48000 nM

SMILES: Cn1ccc(-c2ccc3nccc(-c4cccc(S(C)(=O)=O)c4)c3n2)cc1=O [Compound 19, 1-Methyl-4-[8-(3-methylsulfonylphenyl)-1,5-naphthyridin-2-yl]pyridin-2-one]
Papp A→B (in vitro [6]): 14 ×10⁻⁶ cm/s
solubility thermodynamic at 20 h (physchem [7]): 40 µM (≈ 15.7 µg/mL)
IC50 [8, 17]: 36 nM
IC50 [8, 18]: 4.3 nM
IC50 [8, 19]: 48.9 nM
IC50 [8, 20]: 20.2 nM
IC50 [8, 21]: 39.2 nM
IC50 [8, 22]: 5.2 nM
IC50 [8, 23]: 2.5 nM
IC50 [8, 24]: 5.1 nM
CLint scaled at 1 µM (in vitro [9]; microsomes): < 13.4 mL/min/kg
CLint scaled at 1 µM (in vitro [9]; pooled human liver microsomes): < 19.7 mL/min/kg
IC50 ([4]; one biological replicate): 47000 nM
CLint scaled at 1 µM (in vitro [10]; microsomes): < 45.7 mL/min/kg
CLint scaled at 1 µM (in vitro [10]; mouse liver microsomes): < 67.2 mL/min/kg
IC50 [5, 25]: 16 nM
logD at 3 h (physchem [11]): 1.46
in vivo mouse CLb [12]: 102 mL/min/kg
in vivo mouse CLu [12]: 300 mL/min/kg
bioavailability (in vivo): 27%

SMILES: CS(=O)(=O)c1cccc(-c2ccnc3ccc(N4CCC(O)CC4)nc23)c1 [Compound 21, 1-[8-(3-Methylsulfonylphenyl)-1,5-naphthyridin-2-yl]piperidin-4-ol]
IC50 [2]: 8000 nM
Papp A→B (in vitro [6]): 18 ×10⁻⁶ cm/s
solubility thermodynamic at 20 h (physchem [7]; aqueous solution): 150 µM (≈ 57.5 µg/mL)
IC50 [8, 17]: 84.5 nM
IC50 [8, 18]: 14 nM
IC50 [8, 19]: 131 nM
IC50 [8, 20]: 68.9 nM
IC50 [8, 21]: 53.6 nM
IC50 [8, 22]: 21.7 nM
IC50 [8, 23]: 10.5 nM
IC50 [8, 24]: 9.7 nM
CLint scaled at 1 µM (in vitro [9]; microsomes): < 13.4 mL/min/kg
CLint scaled at 1 µM (in vitro [9]; pooled human liver microsomes): < 17.6 mL/min/kg
IC50 ([4]; one biological replicate): 49000 nM
CLint scaled at 1 µM (in vitro [10]; microsomes): < 45.7 mL/min/kg
CLint scaled at 1 µM (in vitro [10]; mouse liver microsomes): < 60.1 mL/min/kg
IC50 [5, 25]: 32 nM
logD at 3 h (physchem [11]): 2.27
in vivo mouse CLb [12]: 80 mL/min/kg
in vivo mouse CLu [12]: 533 mL/min/kg
bioavailability (in vivo): 37%
IC50 (HepG2 cells; Homo sapiens, HepG2; read-out: HepG2 IC50): > 50000 nM

SMILES: CS(=O)(=O)c1cccc(-c2ccnc3ccc(N4CCCC(C(N)=O)C4)nc23)c1 (centres unmarked) [Compound 22, 1-[8-(3-Methylsulfonylphenyl)-1,5-naphthyridin-2-yl]piperidine-3-carboxamide]
HsMAP4K4 SI (HsMAP4K4): > 4000
HsPI4Kβ SI (HsPI4Kβ): 56
HsMINK1 SI (HsMINK1): > 4000
solubility thermodynamic at 20 h (physchem [7]): 10 µM (≈ 4.1 µg/mL)
IC50 ([4]; one biological replicate): > 50000 nM
IC50 [5, 25]: 67 nM
IC50 [5, 26]: 67.2 nM
HsPI3Kα SI (HsPI3Kα): 60

IC50 [3, 14]: 81 nM
IC50 ([3]; K1, read-out: PfK1 IC50): 81.2 nM
IC50 [5, 15]: 51 nM
IC50 ([5]; NF54, read-out: PfNF54 IC50): 50.7 nM
IC50 ([5]; NF54, read-out: free IC50): 40 nM
SMILES: CNC(=O)Cc1cccc(-c2ccc3nccc(-c4ccc(C(C)(C)O)nc4)c3n2)c1 [Compound 27, 2-[3-[8-[6-(2-Hydroxypropan-2-yl)pyridin-3-yl]-1,5-naphthyridin-2-yl]phenyl]-N-methylacetamide]
IC50 [2]: 38000 nM
IC50 [4]: 31000 nM
IC50 (HepG2 cells; [16]): 6000 nM

SMILES: CS(=O)(=O)c1cccc(-c2ccc3nccc(-c4ccc(C(=O)N5CCC(O)C5)cc4)c3n2)c1 (centres unmarked) [Compound 37, (3-Hydroxypyrrolidin-1-yl)-[4-[6-(3-methylsulfonylphenyl)-1,5-naphthyridin-4-yl]phenyl]methanone]
Papp A→B (in vitro [6]): 1.5 ×10⁻⁶ cm/s
efflux ratio (in vitro [6]): 32
solubility thermodynamic at 20 h (physchem [7]; aqueous solution): 60 µM (≈ 28.4 µg/mL)
IC50 ([3]; K1, pLDH assay, 72 h, read-out: Pf ABS IC50 K1): 96 nM
CLint scaled at 1 µM (in vitro [9]; microsomes): < 13.4 mL/min/kg
CLint scaled at 1 µM (in vitro [9]; pooled human liver microsomes): < 27.3 mL/min/kg
IC50 ([4]; one biological replicate): 24000 nM
CLint scaled at 1 µM (in vitro [10]; microsomes): < 45.7 mL/min/kg
CLint scaled at 1 µM (in vitro [10]; mouse liver microsomes): < 93.2 mL/min/kg
IC50 shift against PI4K mutant lines relative to parent Dd2 [13]: showed IC50 shifts
IC50 [5, 25]: 32 nM
IC50 [5, 26]: 32.2 nM
logD at 3 h (physchem [11]): 1.92
in vivo mouse CLb [12]: 181 mL/min/kg
in vivo mouse CLu [12]: 362 mL/min/kg
bioavailability (in vivo): 11%

SMILES: CNC(=O)c1ccc(-c2cnc3cnc(C(=O)N(C)c4ccc(Cl)cc4)cn23)cc1 [KDU691]
IC50 (P. vivax PI4Kβ (PvPI4K)): 1.6 nM
IC50 (HsPI4K): 7900 nM
IC50 [1]: 27 to 70 nM
